Assay results as given in patent publication US20180284095A1, “BIOMARKERS ASSOCIATED WITH LSD1 INHIBITORS AND USES THEREOF” (Oryzon Genomics, S.A., priority 2015, published 2018).

Legend:
Assay type in all cases: in vivo, mouse
S100A9 = assay: Microarray gene expression in brain, spleen and liver of Hsd:Athymic Nude-Foxn1nu mice (Example 7)
Protocol: (§1) Total RNA was extracted from samples using the RNeasy extraction kit (Qiagen). The quality and concentration of the RNA was analyzed using the Agilent 2100 bioanalyzer and NanoDrop™ ND-1000 (Thermo Scientific). Samples with RNA integrity number (RIN)<6.0 were discarded. Total RNA (0.5 μg) amplification and labelling with Cy3 or Cy5 was carried out using the Eberwein mRNA amplification procedure (Van Gelder et al, Proc Natl Acad Sci USA 1990, 87:1663-1667) employing the MessageAmp™ aRNA amplification kit from Ambion (Applied Biosystems) following the manufacturer's instructions with minor modifications. As hybridization controls, plant mRNAs were transcribed from a plasmid containing the Zea mays Xet (xyloglucan endo-transglycosylase) cDNA and from a plasmid containing the Zea mays Zmmyb42 cDNA, independently prepared Cy3 and Cy5 labelled aRNA from these two RNAs using the Eberwein mRNA amplification procedure (as disclosed in Cerdà et al, Gen Comp Endocrinol 2008, 156:470-481).
(§2) The Cy3- and Cy5-labelled cRNAs and spikes were combined and hybridized to the microarray described in Example 2.6 for 17 h at 60° C. using Agilent's gaskets G2534-60002, G2534A hybridization chambers and DNA Hybridization Oven G2545A, according to the manufacturer's instructions. More specifically, equal amounts of Cy3 and Cy5 labeled Xet aRNA as well as equal amounts of Cy3 and Cy5 labeled Zmmyb42 aRNA were spiked into each mixture hybridized to the array. Arrays were washed and raw data were obtained using Agilent's DNA Microarray Scanner G2505B and Feature Extraction software (v10.1). The raw fluorescence intensity data were processed using applicant's proprietary software, and consists in the following operations:
(§3) Data normalization was carried out by an improved version of the nonlinear Q-splines normalization method (Workman et al., Genome Biol 2002, 3(9):research0048.1-0048.16). Normalization results were presented graphically as MA plots, as first described by Dudoit et al (Dudoit et al, Statistica Sinica, 2002, 12:111-139). Each point corresponds to a probe of the DNA array. M values (vertical axis) are the log-differential expression ratios. A values (horizontal axis) are the log-intensities of the spots. M and A are calculated from the Cy5 and Cy3 intensity values as of each spot. The DNA Array data is normalized using an improved version of non-linear Q-Splines normalization described by Workman et al., Genome Biol 2002, 3(9):research0048.1-0048.16. This process is useful to correct the deviation of the M values from the statistical assumption that most of the spots have M=0 in MA plots. The method allows the adjustment of all M values to form a cloud centered at M=0 in all intensity ranges. The data used to calculate the normalization fitting curve is the totality of the raw measurement dataset, excluding the signals for the probes for the spiked-in plant RNA controls and negative controls. In order to be able to normalize properly the data among all the experiments, the probe-set must include an important group of genes that should have no change (M=0) in the experiment. The normalization function is then applied to all the data, including controls.
(§4) Normalized and log-transformed data were used to calculate log 2 (sample/control) and Fold Change (FC) values. No background subtraction was applied to the signal intensity values during data processing, permitting robust selection of differentially expressed genes with low expression levels at the cost of potential sub-estimation of change when intensity levels are close to the array background level.
(§5) Powered Compound 3, 4 or 5 was dissolved in a 20% solution of 2-hydroxypropyl-R-cyclodextrin in water at the appropriate concentrations, vortexed and placed in an ultrasonic bath for 5 minutes.
(§6) Hsd:Athymic Nude-Foxn1nu mice were maintained in air- and temperature-controlled cages with regular supply of water and food. A maximum of 6 mice/cage were raised. […]

S100A8 = assay: as above
Protocol: as §1, §2, §3, §4, §5, §6

TUBB2C = assay: Microarray gene expression in brain, spleen and liver of Hsd:Athymic Nude-Foxn1nu mice (Example 7), housekeeping gene
Protocol: as §1, §2, §3, §4, §5, §6

TUBB3 = assay: as above
Protocol: as §1, §2, §3, §4, §5, §6

For CN1CCN(C(=O)CN[C@H]2C[C@@H]2c2ccc(OCc3ccccc3)cc2)CC1 (racemic) [Compound 4, 2-(((trans)-2-(4-(benzyloxy)phenyl)cyclopropyl)amino)-1-(4-methylpiperazin-1-yl)ethan-1-one], the “Hybridization signal sample_Cy5” value (S100A9; BRAIN, S100A9, 1 mg/kg) was 306.245, the “log2 (sample/control)” value (S100A9; BRAIN, S100A9, 1 mg/kg vs VEH) was −2.143 and the “Hybridization signal sample_Cy5” value (S100A9; BRAIN, S100A9, 3 mg/kg) was 132.716. The “log2 (sample/control)” value (S100A9; BRAIN, S100A9, 3 mg/kg vs VEH) was −3.286, the “Hybridization signal sample_Cy5” value (S100A9; BRAIN, S100A9, 10 mg/kg) was 78.7372 and the “log2 (sample/control)” value (S100A9; BRAIN, S100A9, 10 mg/kg vs VEH) was −4.222. The “Hybridization signal sample_Cy5” value (S100A9; LIVER, S100A9, 1 mg/kg) was 666.426, the “log2 (sample/control)” value (S100A9; LIVER, S100A9, 1 mg/kg vs VEH) was −1.192 and the “Hybridization signal sample_Cy5” value (S100A9; LIVER, S100A9, 3 mg/kg) was 490.218. For the same compound, the “log2 (sample/control)” value (S100A9; LIVER, S100A9, 3 mg/kg vs VEH) was −1.632, the “Hybridization signal sample_Cy5” value (S100A9; LIVER, S100A9, 10 mg/kg) was 386.758 and the “log2 (sample/control)” value (S100A9; LIVER, S100A9, 10 mg/kg vs VEH) was −1.928. For the same compound, the “Hybridization signal sample_Cy5” value (S100A9; SPLEEN, S100A9, 1 mg/kg) was 13748.6, the “log2 (sample/control)” value (S100A9; SPLEEN, S100A9, 1 mg/kg vs VEH) was −1.579 and the “Hybridization signal sample_Cy5” value (S100A9; SPLEEN, S100A9, 3 mg/kg) was 3824.62. The “log2 (sample/control)” value (S100A9; SPLEEN, S100A9, 3 mg/kg vs VEH) was −3.541, the “Hybridization signal sample_Cy5” value (S100A9; SPLEEN, S100A9, 10 mg/kg) was 2502.64 and the “log2 (sample/control)” value (S100A9; SPLEEN, S100A9, 10 mg/kg vs VEH) was −4.161. The “Hybridization signal sample_Cy5” value (S100A8; BRAIN, S100A8, 1 mg/kg) was 106.74, the “log2 (sample/control)” value (S100A8; BRAIN, S100A8, 1 mg/kg vs VEH) was −1.761 and the “Hybridization signal sample_Cy5” value (S100A8; BRAIN, S100A8, 3 mg/kg) was 65.756. The “log2 (sample/control)” value (S100A8; BRAIN, S100A8, 3 mg/kg vs VEH) was −2.35, the “Hybridization signal sample_Cy5” value (S100A8; BRAIN, S100A8, 10 mg/kg) was 46.781 and the “log2 (sample/control)” value (S100A8; BRAIN, S100A8, 10 mg/kg vs VEH) was −3.042. The “Hybridization signal sample_Cy5” value (S100A8; LIVER, S100A8, 1 mg/kg) was 220.788, the “log2 (sample/control)” value (S100A8; LIVER, S100A8, 1 mg/kg vs VEH) was −0.8718 and the “Hybridization signal sample_Cy5” value (S100A8; LIVER, S100A8, 3 mg/kg) was 211.114. For the same compound, the “log2 (sample/control)” value (S100A8; LIVER, S100A8, 3 mg/kg vs VEH) was −1.181, the “Hybridization signal sample_Cy5” value (S100A8; LIVER, S100A8, 10 mg/kg) was 172.461 and the “log2 (sample/control)” value (S100A8; LIVER, S100A8, 10 mg/kg vs VEH) was −1.335. For the same compound, the “Hybridization signal sample_Cy5” value (S100A8; SPLEEN, S100A8, 1 mg/kg) was 6016.2, the “log2 (sample/control)” value (S100A8; SPLEEN, S100A8, 1 mg/kg vs VEH) was −1.312 and the “Hybridization signal sample_Cy5” value (S100A8; SPLEEN, S100A8, 3 mg/kg) was 1854.43. For the same compound, the “log2 (sample/control)” value (S100A8; SPLEEN, S100A8, 3 mg/kg vs VEH) was −3.148, the “Hybridization signal sample_Cy5” value (S100A8; SPLEEN, S100A8, 10 mg/kg) was 1214.31 and the “log2 (sample/control)” value (S100A8; SPLEEN, S100A8, 10 mg/kg vs VEH) was −3.587. For the same compound, the “Hybridization signal sample_Cy5” value (TUBB2C; BRAIN, 1 mg/kg) was 10016.7, the “log2 (sample/control)” value (TUBB2C; BRAIN, 1 mg/kg vs VEH) was −0.04912 and the “Hybridization signal sample_Cy5” value (TUBB2C; BRAIN, 3 mg/kg) was 9877.42. The “log2 (sample/control)” value (TUBB2C; BRAIN, 3 mg/kg vs VEH) was −0.06585, the “Hybridization signal sample_Cy5” value (TUBB2C; BRAIN, 10 mg/kg) was 11991.7 and the “log2 (sample/control)” value (TUBB2C; BRAIN, 10 mg/kg vs VEH) was −0.04291. For the same compound, the “Hybridization signal sample_Cy5” value (TUBB2C; LIVER, 1 mg/kg) was 4327.04, the “log2 (sample/control)” value (TUBB2C; LIVER, 1 mg/kg vs VEH) was 0.2971 and the “Hybridization signal sample_Cy5” value (TUBB2C; LIVER, 3 mg/kg) was 3201.33. For the same compound, the “log2 (sample/control)” value (TUBB2C; LIVER, 3 mg/kg vs VEH) was 0.1069, the “Hybridization signal sample_Cy5” value (TUBB2C; LIVER, 10 mg/kg) was 3143.68 and the “log2 (sample/control)” value (TUBB2C; LIVER, 10 mg/kg vs VEH) was 0.3292. The “Hybridization signal sample_Cy5” value (TUBB2C; SPLEEN, 1 mg/kg) was 13305.5, the “log2 (sample/control)” value (TUBB2C; SPLEEN, 1 mg/kg vs VEH) was −0.3124 and the “Hybridization signal sample_Cy5” value (TUBB2C; SPLEEN, 3 mg/kg) was 11689.6. The “log2 (sample/control)” value (TUBB2C; SPLEEN, 3 mg/kg vs VEH) was −0.4339, the “Hybridization signal sample_Cy5” value (TUBB2C; SPLEEN, 10 mg/kg) was 6541.2 and the “log2 (sample/control)” value (TUBB2C; SPLEEN, 10 mg/kg vs VEH) was −1.316. The “Hybridization signal sample_Cy5” value (TUBB3; BRAIN, TUBB3, 1 mg/kg) was 4992.04, the “log2 (sample/control)” value (TUBB3; BRAIN, TUBB3, 1 mg/kg vs VEH) was −0.03825 and the “Hybridization signal sample_Cy5” value (TUBB3; BRAIN, TUBB3, 3 mg/kg) was 5129.04. The “log2 (sample/control)” value (TUBB3; BRAIN, TUBB3, 3 mg/kg vs VEH) was 0.07852, the “Hybridization signal sample_Cy5” value (TUBB3; BRAIN, TUBB3, 10 mg/kg) was 5941.88 and the “log2 (sample/control)” value (TUBB3; BRAIN, TUBB3, 10 mg/kg vs VEH) was −0.1778. For the same compound, the “Hybridization signal sample_Cy5” value (TUBB3; LIVER, TUBB3, 1 mg/kg) was 91.4818, the “log2 (sample/control)” value (TUBB3; LIVER, TUBB3, 1 mg/kg vs VEH) was −0.409 and the “Hybridization signal sample_Cy5” value (TUBB3; LIVER, TUBB3, 3 mg/kg) was 66.7291. For the same compound, the “log2 (sample/control)” value (TUBB3; LIVER, TUBB3, 3 mg/kg vs VEH) was −0.2432, the “Hybridization signal sample_Cy5” value (TUBB3; LIVER, TUBB3, 10 mg/kg) was 103.99 and the “log2 (sample/control)” value (TUBB3; LIVER, TUBB3, 10 mg/kg vs VEH) was 0.6811. The “Hybridization signal sample_Cy5” value (TUBB3; SPLEEN, TUBB3, 1 mg/kg) was 76.0246, the “log2 (sample/control)” value (TUBB3; SPLEEN, TUBB3, 1 mg/kg vs VEH) was 0.2314 and the “Hybridization signal sample_Cy5” value (TUBB3; SPLEEN, TUBB3, 3 mg/kg) was 114.188. For the same compound, the “log2 (sample/control)” value (TUBB3; SPLEEN, TUBB3, 3 mg/kg vs VEH) was 0.3352, the “Hybridization signal sample_Cy5” value (TUBB3; SPLEEN, TUBB3, 10 mg/kg) was 154.437 and the “log2 (sample/control)” value (TUBB3; SPLEEN, TUBB3, 10 mg/kg vs VEH) was 0.9169.
